Values quoted from earlier work as cited in article PMC7587962, “Evaluation of Cytotoxicity and α-Glucosidase Inhibitory Activity of Amide and Polyamino-Derivatives of Lupane Triterpenoids” (Molecules, 2020).

Legend:
OVCAR-3 = system: OVCAR-3; set-up: method as in PMID 25405285; conditions: standard drugs used by NCI as control; cited from earlier work
A549/ATCC = system: A549/ATCC; set-up: method as in PMID 25405285; conditions: standard drugs used by NCI as control; cited from earlier work
SF-268 = system: SF-268; set-up: method as in PMID 25405285; conditions: standard drugs used by NCI as control; cited from earlier work
RPMI-8226 = system: RPMI-8226; set-up: method as in PMID 25405285; conditions: standard drugs used by NCI as control; cited from earlier work
KM12 = system: KM12; set-up: method as in PMID 25405285; conditions: standard drugs used by NCI as control; cited from earlier work
BT-549 = system: BT-549; set-up: method as in PMID 25405285; conditions: standard drugs used by NCI as control; cited from earlier work
MDA-MB-231/ATCC = system: MDA-MB-231/ATCC; set-up: method as in PMID 25405285; conditions: MDA-MB-31/ATCC; standard drugs used by NCI as control; cited from earlier work
RXF 393 = system: RXF 393; set-up: method as in PMID 25405285; conditions: standard drugs used by NCI as control; cited from earlier work
MALME-3M = system: MALME-3M; set-up: method as in PMID 25405285; conditions: standard drugs used by NCI as control; cited from earlier work
SK-MEL-28 = system: SK-MEL-28; set-up: method as in PMID 25405285; conditions: standard drugs used by NCI as control; cited from earlier work
NCI-H226 = system: NCI-H226; set-up: method as in PMID 25405285; conditions: standard drugs used by NCI as control; cited from earlier work
SNB-75 = system: SNB-75; set-up: method as in PMID 25405285; conditions: standard drugs used by NCI as control; cited from earlier work
NCI/ADR-RES = system: NCI/ADR-RES; set-up: method as in PMID 25405285; conditions: standard drugs used by NCI as control; cited from earlier work
HT29 = system: HT29; set-up: method as in PMID 25405285; conditions: standard drugs used by NCI as control; cited from earlier work
CCRF-CEM = system: CCRF-CEM; set-up: method as in PMID 25405285; conditions: standard drugs used by NCI as control; cited from earlier work
MOLT-4 = system: MOLT-4; set-up: method as in PMID 25405285; conditions: standard drugs used by NCI as control; cited from earlier work
LOX IMVI = system: LOX IMVI; set-up: method as in PMID 25405285; conditions: standard drugs used by NCI as control; cited from earlier work
OVCAR-5 = system: OVCAR-5; set-up: method as in PMID 25405285; conditions: standard drugs used by NCI as control; cited from earlier work
PC-3 = system: PC-3; set-up: method as in PMID 25405285; conditions: standard drugs used by NCI as control; cited from earlier work
SK-MEL-2 = system: SK-MEL-2; set-up: method as in PMID 25405285; conditions: standard drugs used by NCI as control; cited from earlier work
HOP-62 = system: HOP-62; set-up: method as in PMID 25405285; conditions: standard drugs used by NCI as control; cited from earlier work
TK-10 = system: TK-10; set-up: method as in PMID 25405285; conditions: standard drugs used by NCI as control; cited from earlier work
UO-31 = system: UO-31; set-up: method as in PMID 25405285; conditions: standard drugs used by NCI as control; cited from earlier work
HCC-2998 = system: HCC-2998; set-up: method as in PMID 25405285; conditions: standard drugs used by NCI as control; cited from earlier work
HCT-116 = system: HCT-116; set-up: method as in PMID 25405285; conditions: standard drugs used by NCI as control; cited from earlier work
UACC-62 = system: UACC-62; set-up: method as in PMID 25405285; conditions: standard drugs used by NCI as control; cited from earlier work
IGROV1 = system: IGROV1; set-up: method as in PMID 25405285; conditions: standard drugs used by NCI as control; cited from earlier work
SN12C = system: SN12C; set-up: method as in PMID 25405285; conditions: standard drugs used by NCI as control; cited from earlier work
U251 = system: U251; set-up: method as in PMID 25405285; conditions: standard drugs used by NCI as control; cited from earlier work
CAKI-1 = system: CAKI-1; set-up: method as in PMID 25405285; conditions: standard drugs used by NCI as control; cited from earlier work
SF-539 = system: SF-539; set-up: method as in PMID 25405285; conditions: standard drugs used by NCI as control; cited from earlier work
COLO 205 = system: COLO 205; set-up: method as in PMID 25405285; conditions: standard drugs used by NCI as control; cited from earlier work
HCT-15 = system: HCT-15; set-up: method as in PMID 25405285; conditions: standard drugs used by NCI as control; cited from earlier work
UACC-257 = system: UACC-257; set-up: method as in PMID 25405285; conditions: standard drugs used by NCI as control; cited from earlier work
NCI-H23 = system: NCI-H23; set-up: method as in PMID 25405285; conditions: standard drugs used by NCI as control; cited from earlier work
T-47D = system: T-47D; set-up: method as in PMID 25405285; conditions: standard drugs used by NCI as control; cited from earlier work
M14 = system: M14; set-up: method as in PMID 25405285; conditions: standard drugs used by NCI as control; cited from earlier work
K-562 = system: K-562; set-up: method as in PMID 25405285; conditions: standard drugs used by NCI as control; cited from earlier work
SNB-19 = system: SNB-19; set-up: method as in PMID 25405285; conditions: standard drugs used by NCI as control; cited from earlier work
SK-OV-3 = system: SK-OV-3; set-up: method as in PMID 25405285; conditions: standard drugs used by NCI as control; cited from earlier work
OVCAR-4 = system: OVCAR-4; set-up: method as in PMID 25405285; conditions: standard drugs used by NCI as control; cited from earlier work
786-0 = system: 786-0; set-up: method as in PMID 25405285; conditions: standard drugs used by NCI as control; cited from earlier work
HS 578T = system: HS 578T; set-up: method as in PMID 25405285; conditions: standard drugs used by NCI as control; cited from earlier work
NCI-H522 = system: NCI-H522; set-up: method as in PMID 25405285; conditions: standard drugs used by NCI as control; cited from earlier work
SK-MEL-5 = system: SK-MEL-5; set-up: method as in PMID 25405285; conditions: standard drugs used by NCI as control; cited from earlier work
ACHN = system: ACHN; set-up: method as in PMID 25405285; conditions: standard drugs used by NCI as control; cited from earlier work
SW-620 = system: SW-620; set-up: method as in PMID 25405285; conditions: standard drugs used by NCI as control; cited from earlier work
HOP-92 = system: HOP-92; set-up: method as in PMID 25405285; conditions: standard drugs used by NCI as control; cited from earlier work
A498 = system: A498; set-up: method as in PMID 25405285; conditions: standard drugs used by NCI as control; cited from earlier work
NCI-H460 = system: NCI-H460; set-up: method as in PMID 25405285; conditions: standard drugs used by NCI as control; cited from earlier work
MCF7 = system: MCF7; set-up: method as in PMID 25405285; conditions: standard drugs used by NCI as control; cited from earlier work
OVCAR-8 = system: OVCAR-8; set-up: method as in PMID 25405285; conditions: standard drugs used by NCI as control; cited from earlier work
HL-60(TB) = conditions: standard drugs used by NCI as control; cited from earlier work
DU-145 = system: DU-145; set-up: method as in PMID 25405285; conditions: standard drugs used by NCI as control; cited from earlier work
MDA-MB-435 = system: MDA-MB-435; set-up: method as in PMID 25405285; conditions: standard drugs used by NCI as control; cited from earlier work

Q: For `O=c1[nH]cc(F)c(=O)[nH]1` [Compound 5-FU, 5-fluorouracil], which GI50 (OVCAR-3) is on record?
A: Its GI50 is 10 nM.

Q: What about the GI50 (A549/ATCC) of the same compound?
A: The GI50 was 180 nM.

Q: What about the GI50 (SF-268) of the same compound?
A: Its GI50 is 1620 nM.

Q: What about the GI50 (RPMI-8226) of the same compound?
A: The GI50 was 40 nM.

Q: And the GI50 (KM12)?
A: The GI50 was 210 nM.

Q: And the GI50 (BT-549)?
A: Its GI50 is 10600 nM.

Q: What about the GI50 (MDA-MB-231/ATCC) of the same compound?
A: The GI50 was 6600 nM.

Q: What about the GI50 (RXF 393) of the same compound?
A: Its GI50 is 2610 nM.

Q: And the GI50 (MALME-3M)?
A: The GI50 was 50 nM.

Q: And the GI50 (SK-MEL-28)?
A: The GI50 was 1030 nM.

Q: What about the GI50 (NCI-H226) of the same compound?
A: The GI50 was 54700 nM.

Q: And the GI50 (SNB-75)?
A: Its GI50 is 78700 nM.

Q: What about the GI50 (NCI/ADR-RES) of the same compound?
A: The GI50 was 310 nM.

Q: And the GI50 (HT29)?
A: Its GI50 is 170 nM.

Q: What about the GI50 (CCRF-CEM) of the same compound?
A: The GI50 was 9970 nM.

Q: And the GI50 (MOLT-4)?
A: Its GI50 is 350 nM.

Q: And the GI50 (LOX IMVI)?
A: The GI50 was 240 nM.

Q: What about the GI50 (OVCAR-5) of the same compound?
A: Its GI50 is 10900 nM.

Q: What about the GI50 (PC-3) of the same compound?
A: Its GI50 is 2360 nM.

Q: What about the GI50 (SK-MEL-2) of the same compound?
A: The GI50 was 56700 nM.

Q: And the GI50 (HOP-62)?
A: The GI50 was 390 nM.

Q: What about the GI50 (TK-10) of the same compound?
A: The GI50 was 1120 nM.

Q: What about the GI50 (UO-31) of the same compound?
A: The GI50 was 1420 nM.

Q: And the GI50 (HCC-2998)?
A: Its GI50 is 50 nM.

Q: And the GI50 (HCT-116)?
A: Its GI50 is 220 nM.

Q: And the GI50 (UACC-62)?
A: The GI50 was 520 nM.

Q: What about the GI50 (IGROV1) of the same compound?
A: Its GI50 is 1220 nM.

Q: And the GI50 (SN12C)?
A: The GI50 was 490 nM.

Q: And the GI50 (U251)?
A: Its GI50 is 920 nM.

Q: What about the GI50 (CAKI-1) of the same compound?
A: Its GI50 is 70 nM.

Q: And the GI50 (SF-539)?
A: Its GI50 is 60 nM.

Q: And the GI50 (COLO 205)?
A: Its GI50 is 150 nM.

Q: What about the GI50 (HCT-15) of the same compound?
A: Its GI50 is 110 nM.

Q: What about the GI50 (UACC-257) of the same compound?
A: The GI50 was 3550 nM.

Q: And the GI50 (NCI-H23)?
A: The GI50 was 330 nM.

Q: What about the GI50 (T-47D) of the same compound?
A: Its GI50 is 8120 nM.

Q: And the GI50 (M14)?
A: Its GI50 is 980 nM.

Q: What about the GI50 (K-562) of the same compound?
A: The GI50 was 3580 nM.

Q: What about the GI50 (SNB-19) of the same compound?
A: Its GI50 is 3810 nM.

Q: What about the GI50 (SK-OV-3) of the same compound?
A: Its GI50 is 21800 nM.

Q: What about the GI50 (OVCAR-4) of the same compound?
A: Its GI50 is 4430 nM.

Q: What about the GI50 (786-0) of the same compound?
A: Its GI50 is 720 nM.

Q: And the GI50 (HS 578T)?
A: The GI50 was 9770 nM.

Q: What about the GI50 (NCI-H522) of the same compound?
A: The GI50 was 7270 nM.

Q: And the GI50 (SK-MEL-5)?
A: The GI50 was 460 nM.

Q: What about the GI50 (ACHN) of the same compound?
A: The GI50 was 270 nM.

Q: And the GI50 (SW-620)?
A: The GI50 was 920 nM.

Q: What about the GI50 (HOP-92) of the same compound?
A: The GI50 was 77900 nM.

Q: And the GI50 (A498)?
A: The GI50 was 350 nM.

Q: And the GI50 (NCI-H460)?
A: The GI50 was 50 nM.

Q: What about the GI50 (MCF7) of the same compound?
A: The GI50 was 70 nM.

Q: What about the GI50 (OVCAR-8) of the same compound?
A: The GI50 was 1740 nM.

Q: And the GI50 (HL-60(TB))?
A: The GI50 was 2300 nM.

Q: And the GI50 (DU-145)?
A: The GI50 was 360 nM.

Q: What about the GI50 (MDA-MB-435) of the same compound?
A: Its GI50 is 70 nM.
